Data as given in patent publication US20140294854A1, “TARGET DIRECTED TO ADIPOCYTES, METHODS AND ASSAYS FOR TREATMENT OF OBESITY” (priority 2011, published 2014).
Residues, ends and D or L forms follow the SMILES beside them. *: point of attachment. Cbz = O=C(OCc1ccccc1)*

Key:
HSL = molecular target: T1, HSL (Mus musculus, UniProt P54310); experiment: Free fatty acid release (lipolysis) from adipose tissue explants with the HSL inhibitor; format: cell-based
T1 construct: freshly dissected adipose tissue explants from BALB/c or B6 ob/ob inguinal fat pad; from tissue; host or cells: inguinal fat pad (white adipose tissue) explants of BALB/c and C57BL/6J ob/ob (Agrp-/-) mice
T1 sequence (P54310 1-759): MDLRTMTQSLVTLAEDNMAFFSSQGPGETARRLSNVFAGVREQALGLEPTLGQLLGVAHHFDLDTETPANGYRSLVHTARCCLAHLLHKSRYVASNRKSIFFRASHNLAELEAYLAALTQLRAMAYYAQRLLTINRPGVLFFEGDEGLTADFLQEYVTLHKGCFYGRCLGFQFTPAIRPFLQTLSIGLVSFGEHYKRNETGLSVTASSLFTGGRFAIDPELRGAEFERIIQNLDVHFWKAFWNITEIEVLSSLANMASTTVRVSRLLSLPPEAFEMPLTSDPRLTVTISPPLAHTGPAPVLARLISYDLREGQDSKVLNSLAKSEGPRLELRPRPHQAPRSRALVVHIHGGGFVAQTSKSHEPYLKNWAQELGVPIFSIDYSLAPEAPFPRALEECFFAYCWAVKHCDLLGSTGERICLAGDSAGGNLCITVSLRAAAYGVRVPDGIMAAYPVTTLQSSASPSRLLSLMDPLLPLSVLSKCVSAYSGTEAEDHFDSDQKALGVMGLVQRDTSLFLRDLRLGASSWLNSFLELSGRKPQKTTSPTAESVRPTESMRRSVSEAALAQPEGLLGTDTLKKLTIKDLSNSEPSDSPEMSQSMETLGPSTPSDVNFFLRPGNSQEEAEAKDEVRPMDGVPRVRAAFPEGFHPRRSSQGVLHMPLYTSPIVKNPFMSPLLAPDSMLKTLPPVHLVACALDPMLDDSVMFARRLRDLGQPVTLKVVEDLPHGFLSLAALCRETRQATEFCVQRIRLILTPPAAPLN
Description: Free fatty acids (FFA) release from adipose tissue explants was further measured in presence or not of the HSL inhibitor CAY 10499. […] FFA release was compared from freshly dissected adipose tissue explants from BALB/c or B6 ob/ob inguinal fat pad. It was observed that FFA production was increased in explants from BALB/c relative to B6 ob/ob mice when HSL activity is inhibited by CAY10499. The same difference between BALB and B6 lipolysis (Δ^−CAY=[…] versus Δ^+CAY=397.1±8.1, P=0.31) without the HSL inhibitor (i.e. HSL+ATGL activity) or with CAY10499 (i.e. ATGL activity), respectively. […] Of note, the increased ATGL activity is greater than the increase in ATGL protein content in adipose tissue. This may be due to the concomitant increase of CGI-58 expression that is known to enhance ATGL lipolytic activity.

ATGL = ATGL degradation in WAT fat fragments, anti-ATGL immunoblot; format: cell-based, mouse; settings: for ATGL concentrations on co-treatment with cycloheximide: B6 ob/ob fat co-treated with cycloheximide and the inhibitor
Description: FIGS. 5A-5C. Regulation of ATGL expression through degradation pathways. (5A) ATGL mRNA level in WAT was determined by RT-qPCR (n=6). (5B) WAT fragments of BALB/c and B6 ob/ob mice were incubated for 5 hours with cycloheximide (CHX) and WAT protein lysates were immunoblotted using anti-ATGL to follow degradation rates of ATGL. (5C) B6 ob/ob WAT fragments were treated with MG132 (MG, proteasome inhibitor) and chloroquine (CQ, lysosome inhibitor). Protein extracts were analyzed by Western blot. Densitometry analysis was performed (5B,5C) and data are expressed as average ±SEM (n=6). Unpaired t-tests were performed, *P<0.05.
Thus, BALB/c ob/ob fat has long lived ATGL whereas C57BL/6 ob/ob fat has ATGL that is degraded within several hours. […] Thus, ATGL appears to be degraded by both the lysosomal and proteasomal pathways.

## COc1nn(-c2ccc(NC(=O)OCc3ccccc3)c(C)c2)c(=O)o1 [CAY10499]
HSL; in presence of 100 μM CAY10499
  Lipolysis induced with selective β3AR agonist CL316,243: blunted
HSL; inguinal fat pad explants of BALB/c vs B6 ob/ob with CAY10499 (i.e. ATGL activity), P=0.31 versus without inhibitor
  Difference between BALB and B6 lipolysis (Δ+CAY), FFA release: 397.1±8.1

## CC(C)C[C@@H](C=O)NC(=O)[C@H](CC(C)C)NC(=O)[C@H](CC(C)C)NC(=O)OCc1ccccc1 [MG-132] (Cbz-Leu-Leu-Leu-aldehyde)
ATGL
  ATGL concentrations on co-treatment with cycloheximide: ATGL concentrations persisted

## C[C@@H]1C[C@@H]([C@H](O)CC2CC(=O)NC(=O)C2)C(=O)[C@@H](C)C1 [cycloheximide]
ATGL; fat fragments from B6 ob/ob mice, incubated 5 hours
  ATGL concentrations after cycloheximide treatment: dramatic reduction in ATGL concentrations
ATGL; fat fragments from BALB/c ob/ob mice, incubated 5 hours
  ATGL amounts after cycloheximide treatment: no alteration in ATGL amounts

## CCN(CC)CCCC(C)Nc1ccnc2cc(Cl)ccc12 (stereo not drawn) [chloroquine]
ATGL
  ATGL concentrations on co-treatment with cycloheximide: ATGL concentrations persisted
